Laboratory results taken from patent US20190351012A1, “TARGETING OF INTERFERON-STIMULATED GENE EXPRESSION TO TREAT INTERFERONOPATHIES” (New York University, priority 2018, published 2019).

Experiments:
[1] = test system: ISG transcription in HeLa cell nuclei; assay: Run-on nuclear transcription in HeLa nuclei; format: cell-based, human
Description: FIG. 2. […] (A) Nuclear extracts from HEK293T cells expressing activated recombinant ISGF3 (STAT1, STAT2, IRF9 and JAK1) or transfected with vector (Ctl) were programmed with G6TI-CAT (G6TI) or p107 (ISG54) templates. Radiolabeled RNA transcripts were resolved by polyacrylamide-urea gel electrophoresis. Arrow and arrowhead indicate position of the transcripts from G6TI-CAT and p107, respectively. (B) HeLa cells were either left untreated or treated with IFN-α in the absence or presence of TSA (TSA in vivo) before nuclei were isolated for run-on transcription. Where indicated, TSA was added to the elongation reaction in vitro (TSA in vitro). Specific signals from γ-actin, ISG15, ISG56, 6-16, 9-27, IRF9 and GBP transcription were quantified following filter hybridization and normalized to the signal for GAPDH, arbitrarily set to 100. […] Mononucleosomal DNA fraction was purified from MNase-digested nuclei and analyzed for nucleosome positions by PCR quantitation of protected fragments. All samples were quantified by real-time PCR, except the—53—+1 ISG54 fragment, which was quantified by gel electrophoresis (C). […]
Run-off transcription is largely a measure of transcriptional […]. […] Nuclei were isolated from cells untreated or treated with IFNα, pulse-labeled in vitro with radioactive nucleotides, and specific transcriptional elongation was quantified by filter hybridization (FIG. 2B). […]

[2] = test system: ISG54 promoter nucleosomes in FS2 human diploid fibroblasts; assay: MNase-PCR nucleosome mapping of the ISG54 promoter in FS2 fibroblasts; format: cell-based
Description: FIG. 2. […] (A) Nuclear extracts from HEK293T cells expressing activated recombinant ISGF3 (STAT1, STAT2, IRF9 and JAK1) or transfected with vector (Ctl) were programmed with G6TI-CAT (G6TI) or p107 (ISG54) templates. Radiolabeled RNA transcripts were resolved by polyacrylamide-urea gel electrophoresis. Arrow and arrowhead indicate position of the transcripts from G6TI-CAT and p107, respectively. (B) HeLa cells were either left untreated or treated with IFN-α in the absence or presence of TSA (TSA in vivo) before nuclei were isolated for run-on transcription. Where indicated, TSA was added to the elongation reaction in vitro (TSA in vitro). Specific signals from γ-actin, ISG15, ISG56, 6-16, 9-27, IRF9 and GBP transcription were quantified following filter hybridization and normalized to the signal for GAPDH, arbitrarily set to 100. Representative data from three independent experiments are shown. FS2 human diploid fibroblasts were starved for 72 h before being treated with IFN-α for 7.5 h in the absence or presence of TSA. Mononucleosomal DNA fraction was purified from MNase-digested nuclei and analyzed for nucleosome positions by PCR quantitation of protected fragments. All samples were quantified by real-time PCR, except the—53—+1 ISG54 fragment, which was quantified by gel electrophoresis (C). […]

Structure (SMILES): CC(/C=C/C(=O)NO)=C\[C@@H](C)C(=O)c1ccc(N(C)C)cc1 [TSA, Trichostatin A]
- housekeeping and ISG transcription in nuclear run-on ([1]; TSA added to the in vitro run-on reaction): failed to affect
- ISG transcription in isolated nuclei ([1]; cells stimulated with IFN in the presence of TSA (TSA in vivo)): impaired
- nuclease sensitivity of segments around TATA box and initiation site ([2]; MNase): minimally affected
- IFN-induced increase of nuclease sensitivity of −92 to −33 ISRE segment ([2]; co-treatment with IFN): not prevented
